This is an account of results in patent US9878986B2, “Compounds for selective histone deacetylase inhibitors, and pharmaceutical composition comprising the same” (CHONG KUN DANG PHARMACEUTICAL CORP., priority 2013, dated 2018).

Structures are written as SMILES. pIC50: −log10 of the molar value.

The target of one test is T1, HDAC 3 (Homo sapiens, UniProt O15379).
T1 construct: Reaction Biology Corp
The experiment in a line: HDAC panel by Reaction Biology Corp., HDAC 3. It is filed as biochemical. Conditions: read-out: HDAC inhibitory activities, HDAC 3. An excerpt:
(§1) The inhibitory activities of Compounds 255 and 374 on all HDACs were confirmed (by Reaction Biology Corp.).

Test [1] deals with tubulin acetylation (HDAC6) in RPMI8226 cells. The experiment in a line: Acetylation of Tubulin in cells by Western blot. It is filed as cell-based. Conditions: for concentration at which tubulin acetylation (HDAC6) was expressed: 24 hours. The procedure:
To determine the selectivity for HDAC6 in cells, the acetylation levels of Tubulin, Histone H3 and Histone H4 depending on the concentration of compounds were measured by Western blot.
RPMI8226 (1.0×10^6 cells/well) cells were seeded on six-well plates and treated with drugs (Compounds 255 and 374) at each concentration. After 24 hours, the proteins were extracted with RIPA buffer and quantified by the Bradford method. 25 μg of protein was lysed in sample buffer, electrophoresed on a 4-12% gradient gel, and then transferred to nitrocellulose membranes for 50 minutes. Then transferred protein was blocked with 5% skim milk for 1 hour. Anti-acetyl H3 (1:2,000), anti-acetyl H4 (1:5,000), anti-acetyl tubulin (1:5,000), and anti-β-actin antibody (1:10,000) were added into 5% skim milk, and the membranes were immersed in the skim milk, reacted at 4° C. for 16 hours, and then washed three times for 10 minutes each with 1×TBS-T. Then, IgG-HRP antibody (1:5,000) was added into 5% skim milk, and then the membranes were immersed in the skim milk, reacted at room temperature for 40 minutes, and then washed three times for […] each with 1×TBS-T. Then, the acetylation levels were determined with a LAS 3000 using ECL solution.
The acetylation of tubulin, histone H3 and Histone H4 on RPMI8226 cells (1.0×10^6 cells/well) derived from myeloma was determined in the same manner as the cell determination in Example 1.

A further test has as its target T2, HDAC 10 (Homo sapiens, UniProt Q969S8).
T2 construct: Reaction Biology Corp
T2 sequence (Q969S8 1-669): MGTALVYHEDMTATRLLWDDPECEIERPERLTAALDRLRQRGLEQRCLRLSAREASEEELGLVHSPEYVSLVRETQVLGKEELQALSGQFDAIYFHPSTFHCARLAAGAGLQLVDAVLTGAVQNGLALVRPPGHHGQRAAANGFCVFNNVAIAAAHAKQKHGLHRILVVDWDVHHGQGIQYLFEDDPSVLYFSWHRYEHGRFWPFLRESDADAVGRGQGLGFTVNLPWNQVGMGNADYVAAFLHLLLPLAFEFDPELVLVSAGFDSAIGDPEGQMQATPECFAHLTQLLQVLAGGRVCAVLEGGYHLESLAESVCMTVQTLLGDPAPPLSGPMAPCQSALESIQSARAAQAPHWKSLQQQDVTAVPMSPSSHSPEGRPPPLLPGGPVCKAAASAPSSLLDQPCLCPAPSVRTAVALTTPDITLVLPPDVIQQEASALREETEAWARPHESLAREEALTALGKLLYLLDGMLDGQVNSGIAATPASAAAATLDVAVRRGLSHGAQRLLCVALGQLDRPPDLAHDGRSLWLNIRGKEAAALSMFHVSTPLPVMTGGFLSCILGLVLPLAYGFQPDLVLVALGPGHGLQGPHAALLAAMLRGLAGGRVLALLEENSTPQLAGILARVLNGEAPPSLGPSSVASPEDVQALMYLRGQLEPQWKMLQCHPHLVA
As to the kind of experiment: HDAC panel by Reaction Biology Corp., HDAC 10. It is filed as biochemical. Conditions: read-out: HDAC inhibitory activities, HDAC 10.
From the text: as §1

A further test concerns the target HDAC1 (Homo sapiens, UniProt Q13547). The experiment in a line: HDAC panel by Reaction Biology Corp., HDAC 1. Conditions: Table 15, Reaction Biology Corp.; read-out: HDAC1 inhibitory activity. Further details: Reaction Biology Corp. In kind it is biochemical.
From the text: as §1

The next test concerns the target T3, HDAC 7 (Homo sapiens, UniProt Q8WUI4).
T3 construct: Reaction Biology Corp
T3 sequence (Q8WUI4 1-952): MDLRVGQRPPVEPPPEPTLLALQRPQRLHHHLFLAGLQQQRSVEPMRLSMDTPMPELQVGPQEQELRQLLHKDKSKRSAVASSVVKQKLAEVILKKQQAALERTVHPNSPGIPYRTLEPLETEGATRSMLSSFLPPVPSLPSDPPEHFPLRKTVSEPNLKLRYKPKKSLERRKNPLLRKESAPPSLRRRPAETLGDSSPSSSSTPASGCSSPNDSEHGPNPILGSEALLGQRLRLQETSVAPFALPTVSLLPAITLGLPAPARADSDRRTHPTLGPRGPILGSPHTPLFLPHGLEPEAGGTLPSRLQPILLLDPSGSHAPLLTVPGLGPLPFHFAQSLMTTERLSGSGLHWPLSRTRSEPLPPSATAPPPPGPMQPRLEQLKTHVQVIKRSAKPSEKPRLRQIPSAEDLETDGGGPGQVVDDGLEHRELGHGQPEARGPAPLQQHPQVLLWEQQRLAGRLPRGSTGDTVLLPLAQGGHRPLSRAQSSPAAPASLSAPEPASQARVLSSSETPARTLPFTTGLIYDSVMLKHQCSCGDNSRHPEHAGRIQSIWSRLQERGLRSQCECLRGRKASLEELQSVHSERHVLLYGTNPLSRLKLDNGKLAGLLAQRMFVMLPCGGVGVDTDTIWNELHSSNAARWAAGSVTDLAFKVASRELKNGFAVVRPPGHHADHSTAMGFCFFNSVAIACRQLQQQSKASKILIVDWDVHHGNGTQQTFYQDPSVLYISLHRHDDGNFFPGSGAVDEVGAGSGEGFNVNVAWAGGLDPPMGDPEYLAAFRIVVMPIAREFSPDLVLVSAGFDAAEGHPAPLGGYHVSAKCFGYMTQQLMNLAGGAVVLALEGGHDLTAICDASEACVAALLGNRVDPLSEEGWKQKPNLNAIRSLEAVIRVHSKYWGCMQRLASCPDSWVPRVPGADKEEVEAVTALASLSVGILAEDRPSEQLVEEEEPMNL
As to the kind of experiment: HDAC panel by Reaction Biology Corp., HDAC 7. It is filed as biochemical. Conditions: read-out: HDAC inhibitory activities, HDAC 7.
From the text: as §1

A further test addresses T4, HDAC 4 (Homo sapiens, UniProt P56524).
T4 construct: Reaction Biology Corp
The experiment in a line: HDAC panel by Reaction Biology Corp., HDAC 4. In kind it is biochemical. The note with it: read-out: HDAC inhibitory activities, HDAC 4.
From the text: as §1

T1 sequence (O15379 whole entry): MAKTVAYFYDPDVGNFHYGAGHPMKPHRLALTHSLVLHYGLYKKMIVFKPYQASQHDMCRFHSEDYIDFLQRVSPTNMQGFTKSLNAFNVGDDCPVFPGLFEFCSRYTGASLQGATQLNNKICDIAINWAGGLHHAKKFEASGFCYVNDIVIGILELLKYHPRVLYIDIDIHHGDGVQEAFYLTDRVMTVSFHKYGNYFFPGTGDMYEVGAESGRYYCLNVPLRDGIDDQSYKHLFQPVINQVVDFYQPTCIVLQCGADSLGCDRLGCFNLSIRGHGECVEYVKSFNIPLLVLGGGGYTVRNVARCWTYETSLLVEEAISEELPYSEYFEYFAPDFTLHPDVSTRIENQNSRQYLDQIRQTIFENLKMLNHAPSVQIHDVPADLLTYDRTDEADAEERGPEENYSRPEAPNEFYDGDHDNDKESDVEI
T1 sequence (Q9Y618 395-489 partner limits assumed): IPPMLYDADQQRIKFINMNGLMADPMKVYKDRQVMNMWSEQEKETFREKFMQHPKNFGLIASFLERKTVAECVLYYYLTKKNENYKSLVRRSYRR
Chain of HDAC1 (Q13547 whole entry): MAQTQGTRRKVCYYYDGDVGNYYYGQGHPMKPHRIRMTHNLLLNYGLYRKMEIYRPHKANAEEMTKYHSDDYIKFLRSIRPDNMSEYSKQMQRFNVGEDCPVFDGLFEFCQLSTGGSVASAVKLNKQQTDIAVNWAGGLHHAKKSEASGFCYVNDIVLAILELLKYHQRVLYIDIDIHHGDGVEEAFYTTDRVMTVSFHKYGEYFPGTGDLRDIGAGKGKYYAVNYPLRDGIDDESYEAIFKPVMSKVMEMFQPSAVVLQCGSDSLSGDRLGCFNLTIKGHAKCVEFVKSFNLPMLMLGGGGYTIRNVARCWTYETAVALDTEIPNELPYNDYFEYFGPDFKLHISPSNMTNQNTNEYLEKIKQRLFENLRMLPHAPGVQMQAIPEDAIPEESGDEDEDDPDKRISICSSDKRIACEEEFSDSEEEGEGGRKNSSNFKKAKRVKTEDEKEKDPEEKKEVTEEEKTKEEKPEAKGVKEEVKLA
T4 sequence (P56524 whole entry): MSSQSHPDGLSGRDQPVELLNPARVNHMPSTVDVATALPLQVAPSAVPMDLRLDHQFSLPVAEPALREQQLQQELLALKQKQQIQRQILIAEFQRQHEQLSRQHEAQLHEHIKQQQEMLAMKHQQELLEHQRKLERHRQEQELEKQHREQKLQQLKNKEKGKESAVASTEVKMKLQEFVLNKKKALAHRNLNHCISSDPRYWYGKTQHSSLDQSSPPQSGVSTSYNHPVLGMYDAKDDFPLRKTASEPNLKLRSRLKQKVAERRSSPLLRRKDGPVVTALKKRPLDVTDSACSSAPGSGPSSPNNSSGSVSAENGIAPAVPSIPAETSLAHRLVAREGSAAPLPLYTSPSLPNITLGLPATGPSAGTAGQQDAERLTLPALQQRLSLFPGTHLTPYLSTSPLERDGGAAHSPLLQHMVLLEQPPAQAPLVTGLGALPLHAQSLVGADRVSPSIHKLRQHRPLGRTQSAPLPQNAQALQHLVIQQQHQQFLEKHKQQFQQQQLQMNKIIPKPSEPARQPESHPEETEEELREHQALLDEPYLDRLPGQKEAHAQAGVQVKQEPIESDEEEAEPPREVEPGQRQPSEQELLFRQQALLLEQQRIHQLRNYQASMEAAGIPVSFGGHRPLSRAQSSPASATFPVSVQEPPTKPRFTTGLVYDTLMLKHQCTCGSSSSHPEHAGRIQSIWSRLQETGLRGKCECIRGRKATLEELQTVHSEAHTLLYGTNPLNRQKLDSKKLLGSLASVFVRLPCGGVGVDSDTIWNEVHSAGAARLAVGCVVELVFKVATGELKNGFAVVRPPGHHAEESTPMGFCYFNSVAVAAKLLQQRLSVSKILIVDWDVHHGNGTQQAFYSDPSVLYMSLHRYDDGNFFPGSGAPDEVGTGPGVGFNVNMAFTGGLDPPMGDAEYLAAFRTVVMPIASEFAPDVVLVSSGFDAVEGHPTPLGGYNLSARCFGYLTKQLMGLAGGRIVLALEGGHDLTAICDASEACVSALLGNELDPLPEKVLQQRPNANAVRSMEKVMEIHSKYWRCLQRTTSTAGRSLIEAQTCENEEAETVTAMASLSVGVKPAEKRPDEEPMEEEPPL

Take `O=C(NO)c1ccc(CN(C(=O)N2CCOCC2)c2cccc(Br)c2)cc1` [Compound 255, N-(3-bromophenyl)-N-(4-(hydroxycarbamoyl)benzyl)morpholine-4-carboxamide]: the pIC50 is 5.79 at HDAC 3; 5.83 on HDAC 10; 6.80 at HDAC1; 5.82 on HDAC 7; 5.16 at HDAC 4. The “cell selectivity (tubulin versus histone acetylation)” value in test [1] was “excellent cell selectivity”. Moreover, the “concentration at which tubulin acetylation (HDAC6) was expressed” value in test [1] is recorded as “about 10 nM”.

Turning to `O=C(NO)c1ccc(CN(C(=O)N2CCOCC2)c2cccc(C(F)(F)F)c2)cc1` [Compound 374, N-(4-(hydroxycarbamoyl)benzyl)-N-(3-(trifluoromethyl)phenyl)morpholine-4-carboxamide], the pIC50 is 4.99 at HDAC 3; 4.79 at HDAC 10; 5.67 on HDAC1; 5.28 at HDAC 7; 4.79 at HDAC 4. Further, in test [1], the “cell selectivity (tubulin versus histone acetylation)” value is reported as “excellent cell selectivity”. Also, the “concentration at which tubulin acetylation (HDAC6) was expressed” value in test [1] was “about 10 nM”.
